From PMC2139785 (The Journal of Cell Biology, 1997)

Molecular target: p62^cplx-associated PI3-kinase (100-kD catalytic subunit)
Test: PI3-kinase lipid kinase assay
Type: biochemical, Rattus norvegicus

SMILES: COC[C@H]1OC(=O)c2coc3c2[C@@]1(C)C1=C(C3=O)[C@@H]2CCC(=O)[C@@]2(C)C[C@H]1OC(C)=O [wortmannin]
- IC50: ~3.5 µM
